The test system of one experiment is COLO 320. The experiment in a line: cells. Conditions: Homo sapiens, COLO 320, read-out: GI.
Experiment [1] deals with Candida albicans. The experiment in a line: Antifungal activity against Candida albicans MTCC 227 at 1 mg/disc after 48 hrs at 28 degC by disc diffusion method. The class given is functional. Background: A growth-free zone around the sample is the usual read-out of agar diffusion tests.
The test system of the next experiment is Malassezia pachydermatis. Kind of experiment: Antifungal activity against Malassezia pachydermatis at 1 mg/disc after 48 hrs at 28 degC by disc diffusion method. The experiment is classed as functional.
The subject of experiment [2] is Candida albicans. The experiment in a line: Antifungal activity against Candida albicans MTCC 227 after 48 to 72 hrs at 28 degC by two fold serial dilution method. The class given is functional.
Experiment [3] relates to Klebsiella pneumoniae. Kind of experiment: Antibacterial activity against Klebsiella pneumoniae MTCC 109 after 24 hrs at 37 degC by two fold serial dilution method. The experiment is classed as functional. The following applies: MTCC 109, 24 h.
In experiment [4] the test system is Bacillus subtilis. Kind of experiment: Antibacterial activity against Bacillus subtilis MTCC 441 at 1 mg/disc after 24 hrs at 37 degC by disc diffusion method. The class given is functional.
For experiment [5], the system named is Klebsiella pneumoniae. The experiment in a line: Antibacterial activity against Klebsiella pneumoniae MTCC 109 at 1 mg/disc after 24 hrs at 37 degC by disc diffusion method. The experiment is classed as functional.
Experiment [6] concerns Klebsiella aerogenes. The experiment in a line: Antibacterial activity against Enterobacter aerogenes MTCC 111 after 24 hrs at 37 degC by two fold serial dilution method. The following applies: MTCC 111, 24 h. The experiment is classed as functional.
For experiment [7], the system named is Micrococcus luteus. Kind of experiment: Antibacterial activity against Micrococcus luteus MTCC 106 after 24 hrs at 37 degC by two fold serial dilution method. The experiment is classed as functional. Conditions: MTCC 106, 24 h.
Experiment [8] concerns Shigella flexneri. Kind of experiment: Antibacterial activity against Shigella flexneri MTCC 1457 after 24 hrs at 37 degC by two fold serial dilution method. The experiment is classed as functional. The following applies: MTCC 1457, 24 h.
Experiment [9] deals with Micrococcus luteus. Kind of experiment: Antibacterial activity against Micrococcus luteus MTCC 106 at 1 mg/disc after 24 hrs at 37 degC by disc diffusion method. The experiment is classed as functional.
In experiment [10] the test system is Staphylococcus aureus. Kind of experiment: Antibacterial activity against methicillin-resistant Staphylococcus aureus at 1 mg/disc after 24 hrs at 37 degC by disc diffusion method. The class given is functional.
The test system of experiment [11] is Shigella flexneri. Kind of experiment: Antibacterial activity against Shigella flexneri MTCC 1457 at 1 mg/disc after 24 hrs at 37 degC by disc diffusion method. The class given is functional.
For experiment [12], the system named is Bacillus subtilis. The experiment in a line: Antibacterial activity against Bacillus subtilis MTCC 441 after 24 hrs at 37 degC by two fold serial dilution method. The class given is functional. Conditions: MTCC 441, 24 h.
For experiment [13], the system named is Staphylococcus epidermidis. Kind of experiment: Antibacterial activity against Staphylococcus epidermidis MTCC 3615 at 1 mg/disc after 24 hrs at 37 degC by disc diffusion method. The experiment is classed as functional.
In experiment [14] the test system is Salmonella typhimurium. The experiment in a line: Antibacterial activity against Salmonella typhimurium MTCC 1251 after 24 hrs at 37 degC by two fold serial dilution method. The class given is functional, Salmonella enterica subsp. enterica serovar Typhimurium. The following applies: Salmonella enterica, MTCC 1251, 24 h.
In experiment [15] the test system is Staphylococcus epidermidis. The experiment in a line: Antibacterial activity against Staphylococcus epidermidis MTCC 3615 after 24 hrs at 37 degC by two fold serial dilution method. The following applies: MTCC 3615, 24 h. The class given is functional.
Experiment [16] has as its system Staphylococcus aureus. Kind of experiment: Antibacterial activity against Staphylococcus aureus MTCC 96 at 1 mg/disc after 24 hrs at 37 degC by disc diffusion method. The experiment is classed as functional.
For experiment [17], the system named is Klebsiella aerogenes. Kind of experiment: Antibacterial activity against Enterobacter aerogenes MTCC 111 at 1 mg/disc after 24 hrs at 37 degC by disc diffusion method. The class given is functional.
The test system of experiment [18] is Staphylococcus aureus. Kind of experiment: Antibacterial activity against methicillin-resistant Staphylococcus aureus after 24 hrs at 37 degC by two fold serial dilution method. The class given is functional.
Experiment [19] has as its system Salmonella typhimurium. Kind of experiment: Antibacterial activity against Salmonella typhimurium MTCC 1251 at 1 mg/disc after 24 hrs at 37 degC by disc diffusion method. The experiment is classed as functional, Salmonella enterica subsp. enterica serovar Typhimurium.
Experiment [20] has as its system Staphylococcus aureus. The experiment in a line: Antibacterial activity against Staphylococcus aureus MTCC 96 after 24 hrs at 37 degC by two fold serial dilution method. The experiment is classed as functional. Conditions: MTCC 96, 24 h.

Molecules are shown by their SMILES. In brackets after ≈: the same amount, converted by molar mass.

Description for COLO 320: Cytotoxicity against human COLO320 cells assessed as cell growth inhibition at 156 uM by MTT assay relative to control

As to `O=P1(N(CCCl)CCCl)NCCCO1` (configuration not stated) [CYCLOPHOSPHAMIDE ANHYDROUS], the inhibition of growth at 156 µM in the experiment with COLO 320 was found to be 90%.

For the compound `CC(=O)N1CCN(c2ccc(OCC3COC(Cn4ccnc4)(c4ccc(Cl)cc4Cl)O3)cc2)CC1` (configuration not stated) [KETOCONAZOLE], the “inhibition zone (IZ)” value was 28 mm in the experiment on Candida albicans [1] and 26 mm with Malassezia pachydermatis. This compound also gave an MIC against Candida albicans [2] of 25 µM (≈ 13.3 µg/mL).

Consider `CN[C@@H]1[C@H](O[C@H]2[C@H](O[C@H]3[C@H](O)[C@@H](O)[C@H](N=C(N)N)[C@@H](O)[C@@H]3N=C(N)N)O[C@@H](C)[C@]2(O)C=O)O[C@@H](CO)[C@H](O)[C@H]1O` [STREPTOMYCIN], for which the MIC with Klebsiella pneumoniae [3] worked out at 6.25 µM (≈ 3.63 µg/mL); against Klebsiella aerogenes [6], 25 µM (≈ 14.5 µg/mL); in the experiment with Micrococcus luteus [7], 6.25 µM (≈ 3.63 µg/mL); against Shigella flexneri [8], 6.25 µM (≈ 3.63 µg/mL); against Bacillus subtilis [12] it was 25 µM (≈ 14.5 µg/mL); against Salmonella typhimurium [14], 30 µM (≈ 17.4 µg/mL). The results for the minimum inhibitory concentration (MIC) (in [15]; in the experiment on Staphylococcus aureus [18]; against Staphylococcus aureus [20]) were 25 µM (≈ 14.5 µg/mL), 6.25 µM (≈ 3.63 µg/mL) and 6.25 µM (≈ 3.63 µg/mL), respectively. Further, the “inhibition zone (IZ)” value turned out to be 25 mm in the experiment on Bacillus subtilis [4]; 20 mm in the experiment on Klebsiella pneumoniae [5]; 26 mm in the experiment on Micrococcus luteus [9]; 30 mm in the experiment with Staphylococcus aureus [10]; 30 mm in the experiment with Shigella flexneri [11]; 25 mm in [13]. Also, the “inhibition zone (IZ)” value was determined as 14 mm in the experiment on Staphylococcus aureus [16], 22 mm in the experiment with Klebsiella aerogenes [17] and 18 mm with Salmonella typhimurium [19].

The MIC is the lowest concentration that inhibits growth of the organism.

The values above are taken from ChEMBL document CHEMBL4425183, “Gold catalyzed double condensation reaction: Synthesis, antimicrobial and cytotoxicity of spirooxindole derivatives” (Bioorg Med Chem Lett, 2016).
